In publication PMC4464424, “Peptide–polymer ligands for a tandem WW-domain, an adaptive multivalent protein–protein interaction: lessons on the thermodynamic fitness of flexible ligands” (Beilstein Journal of Organic Chemistry, 2015):
Where two headings read alike, the source gives them in different places. Ends that are not written are not given here.

T1: tandem WW domain of FBP21 (Homo sapiens, UniProt O75554)
T1 construct: multivalent peptide-polymer conjugates and the tandem WW domain of protein FBP21 determined at 8 °C by ITC measurements; made in house; host or cells: E. coli BL21 (DE3)
T1 sequence (O75554 122-196 limits assumed): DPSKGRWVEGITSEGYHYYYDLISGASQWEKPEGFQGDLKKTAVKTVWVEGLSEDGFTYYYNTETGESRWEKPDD

T2: Dex-2 (also: 6 peptides conjugated to 10 kDa dextran)
T2 chain: CGPPPRGPPPR-NH2

T3: Dex-3 (also: 8 peptides conjugated to 50 kDa dextran)
T3 chain: CGPPPRGPPPR-NH2

T4: Dex-1 (also: 3 peptides conjugated to 10 kDa dextran)
T4 chain: CGPPPRGPPPR-NH2

T5: hPG-1 (also: 3 peptides conjugated to hyperbranched polyglycerol)
T5 chain: CGPPPRGPPPR-NH2

T6: pHPMA-2 (also: 9 peptides conjugated to pHPMA polymer)
T6 chain: CGPPPRGPPPR-NH2

T7: P1
T7 chain: GPPPRGPPPR-NH2

T8: pHPMA-1 (also: 6 peptides conjugated to pHPMA polymer)
T8 chain: CGPPPRGPPPR-NH2

B1: FBP21 tandem WW (protein)
chain: T1 sequence (O75554 122-196 limits assumed)

How the values were obtained:
[1] = biological target: T1, tandem WW domain of FBP21; experiment: Isothermal titration calorimetry (ITC) of peptide–polymer conjugates with tandem WW domain; format: binding; conditions: for Binding stoichiometry (peptide ligands per protein receptor): ratio of peptide ligand molecules relative to each protein binding site
Experimental: Binding studies with peptide–polymer conjugates were conducted employing isothermal titration calorimetry (ITC). This method enables the determination of the binding affinity of the multivalent ligands and elucidates the composition of the free energy of binding from the enthalpic and entropic contributions. In addition, the method can be used to determine the stoichiometry of the formed protein–ligand complex indicating the ratio of peptide ligand molecules relative to each protein binding site thereby giving valuable insights into the multivalency of binding and/or the degree of crosslinking. Thus, the method enables the identification of polymer–protein aggregates containing several polymers and proteins in a complex. No precipitation of the multicomponent aggregates that interfered with ITC measurements was observed during the experiments.
ITC-analysis (Figure 2) of the binding of multivalent peptide–polymer conjugates yielded KD values either corresponding to the polymer concentration or relative to the overall peptide concentration (N*KD). […] Binding in all cases was driven mainly by enthalpy, which clearly outweighed the observed entropy loss. In the seven peptide–polymer conjugates investigated, increased loading density of ligands led consistently to increased affinity of the multivalent ligand (Table 1). The most significant difference between dextran and the two other polymer carriers was the stoichiometry of the formed peptide-polymer–protein complex. […] Corresponding to the observed colloidal suspension/dispersion the stoichiometry of peptide ligands per protein receptor resulting from the ITC experiments was >2 for each of either pHPMA or hPG-based material, most pronounced for pHPMA with n = 2.6–2.8.
Figure 2 Representative ITC-measurements conducted at 8 °C with the peptide–polymer conjugates A) pHPMA-1 and B) Dex-2 showing an increase in affinity for the interaction of Dex-2 with the FBP21 tandem WW domains. […]
Isothermal Titration Calorimetry (ITC) Experiments
All samples for ITC were prepared with the phosphate buffer used for protein purification. A 10 mM stock solution of the peptide polymer conjugate in PBS was prepared and adjusted to pH 7.4 with a 50 mM NaOH solution in PBS. Aliquots of the stock solution were diluted to the final concentration of 1.5-2 mM with PBS.
Proteins were expressed as His- or GST-tagged fusion constructs in E.coli BL21 (DE3), purified by the corresponding affinity matrices, thrombin cleaved and applied to a gel filtration column (superdex-75) at 50 mM phosphate, 150 mM NaCl, 1 mM EDTA, pH 6.5 or 1xPBS, 1 mM EDTA, pH 7.4. Proteins were concentrated by Cen-trifugal Filter Units (regenerated cellulose, 3 kDa cut-off, Millipore) if necessary.
2 µl aliquots of peptide-polymer conjugates were titrated into a 50-70 µM protein solution inside the calorimeter cell (200 µl) while the reaction mixture was continuously stirred at 1000 rpm. Ligand concentration in the titration syringe was typically in 20-time excess corresponding to protein. Time intervals between injections were adjusted to 240 s which was sufficient for the heat signal to return to baseline level. In control experiments peptide-polymer conjugates were injected into […]
The heats of dilution were subtracted from the heats determined in the corresponding protein-ligand binding experiments. Automated baseline adjustment and peak integration were accomplished with the public-domain software NITPIC [5]. Estimation of best-fit parameter values by nonlinear least-squares fitting and calculation of 95% confidence intervals were performed with the public-domain software SEDPHAT [6].
Polymer-attached peptides were considered as monovalent ligands, and the tandem WW protein as receptor molecule with two similar independent binding sites. Binding was analysed in terms of simple hetero-association model. Corresponded calculation gives the microscopic binding constants that characterise the binding affinity of […]

[2] = biological target: T1, tandem WW domain of FBP21; conditions: peptide alone, read-out: dissociation constant (KD); cited from earlier work
From the text: ITC-analysis (Figure 2) of the binding of multivalent peptide–polymer conjugates yielded KD values either corresponding to the polymer concentration or relative to the overall peptide concentration (N*KD).

Dex-2 = biological target: T2, Dex-2; experiment: ITC
Dex-3 = biological target: T3, Dex-3; experiment: ITC
Dex-1 = biological target: T4, Dex-1; experiment: ITC
hPG-1 = biological target: T5, hPG-1; experiment: ITC
pHPMA-2 = biological target: T6, pHPMA-2; experiment: ITC
P1 = biological target: T7, P1; experiment: ITC
pHPMA-1 = biological target: T8, pHPMA-1; experiment: ITC
[3] = ITC at 8 °C, PBS pH 7.4, 2 µl aliquots of conjugate titrated into 50-70 µM protein, KD related to polymer concentration, 1:1 binding model, read-out: KD (binding affinities of peptide–polymer conjugates)

Row | Molecule | Binding stoichiometry (peptide ligands per protein receptor) ([1]; ITC at 8 °C) | Kd [1, 3] [µM] | also measured
1 | CGPPPRGPPPR [pHPMA-2, poly(N-(2-hydroxypropyl)methacrylamide) NCL-polymer conjugated with 9 copies of P2 by native chemical ligation] | 2.8 | – | –
2 | CGPPPRGPPPR [hPG-1, hyperbranched polyglycerol modified with maleimido groups, coupled with 3 copies of P2] | 2.3 | – | –
3 | CGPPPRGPPPR [Dex-1] | 1.8 | 7 ± 1.2 | –
4 | CGPPPRGPPPR [hPG-2, hyperbranched polyglycerol modified with maleimido groups, coupled with 4 copies of P2] | 2.4 | 5 ± 1.3 | –
5 | CGPPPRGPPPR [pHPMA-1, poly(N-(2-hydroxypropyl)methacrylamide) NCL-polymer conjugated with 6 copies of P2 by native chemical ligation] | 2.6 | 5 ± 0.8 | –
6 | CGPPPRGPPPR [Dex-2] | 1.4 | – | –
7 | CGPPPRGPPPR [Dex-3] | 1.3 | – | –
8 | GPPPRGPPPR-NH2 [P1] | – | – | Kd ([1]; monovalent ligand, tandem WW-domain of FBP21, as stated in the abstract, read-out: KD): > 1000 µM; Kd [2]: > 1000 µM
9 | Ac-GPPPRGPPPR-NH2 [Ac-P1] | – | > 1000 | Kd ([1]; ITC at 8 °C, PBS pH 7.4, related to overall peptide concentration, N = number of ligands per polymer, read-out: Rel. KD = N*KD (binding affinity related to overall peptide concentration)): > 1000 µM
10 | B1 | – | – | Kd (Dex-2): 1.2 µM; Kd (Dex-3): 1.6 µM; Kd (Dex-1): 7 µM; Kd (hPG-1): 6.3 µM; Kd (pHPMA-2): 3.3 µM; Kd (P1): > 1000 µM; Kd (pHPMA-1): 5 µM
